The values that follow come from patent US20050096254A1, “Peptide deformylase activated prodrugs” (priority 2002, published 2005).

What all share (type): cell-based
One series has as its system E. coli. The series can be described thus: MIC susceptibility testing (modified NCCLS). As to conditions: Table 4, E. coli. How it is done:
(§1) The NCCLS (National Committee for Clinical Laboratory Standards), method to determine MIC's of antimicrobial compounds is modified for high-throughput screening. All stocks of tested compounds are prepared in either water or in DMSO depending on solubility. At the highest concentration, DMSO content should not exceed 0.5%. Briefly, twenty 2-fold serial dilutions of test compounds from the highest concentration is made in a 384-well microtiter plate. Each well is inoculated with testing bacteria in broth to a final concentration of approximately 1-1.5×10^6 cells/ml. Bacterial growth is determined by the increase of optical density at 600 nm using a microplate reader (Tecan SpectraFluor Plus).

The next series concerns E. cloacae. The series can be described thus: MIC susceptibility testing (modified NCCLS). How it is done: as §1
A further series has as its system Mammalian cells. The series can be described thus: Toxicity to mammalian cells. The conditions noted are these: after 16 hours of exposure. How it is done:
Mammalian cells were treated with Compound #2 as described above.

≈ marks a conversion by molar mass, not a printed value.

Usually MIC stands for the least concentration at which growth counts as inhibited. As usually defined, the IC50 is the concentration that gives 50% inhibition. Low values mean greater potency, high ones weaker potency. Take `CSCC[C@H](NC=O)C(=O)N[C@@H](CC(C)C)C(=O)Oc1cc(Cl)ccc1Oc1ccc(Cl)cc1Cl` [Compound #2]: the MIC turned out to be 16 µg/mL (≈ 28.5 µM) against E. coli (Exp. #1); 16 µg/mL (≈ 28.5 µM) in the series with E. coli (Exp. #2); 0.5 µg/mL (≈ 0.89 µM) in the series on E. cloacae (Table 3, E. cloacae ATCC 23355, Exp. #1); 0.5 µg/mL (≈ 0.89 µM) in the series with E. cloacae (Table 3, E. cloacae ATCC 23355, Exp. #2); 16 µg/mL (≈ 28.5 µM) in the series on E. cloacae (Table 4, E. cloacae ATCC 23355, Exp. #1); 1 µg/mL (≈ 1.78 µM) in the series with E. cloacae (Table 4, E. cloacae ATCC 23355, Exp. #2). Besides, in the series on Mammalian cells, the IC50 was about 30 µM.
